Assay results: ChEMBL document CHEMBL1201862, “PubChem BioAssay data set” (2004)
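All cell lines were grown in 96-well plates and treated with compound for 48 hours. GI50: concentration for 50% inhibition of growth.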 The source made the active and inactive calls. Rule as the data show it: active = GI50 up to about 1.1 µM and inactive = higher.

Columns and labels:
Test in all cases: NCI anticancer screen, dose series, 48 h
[1] = tested on: 786-0
[2] = tested on: A549
[3] = tested on: UACC-257
[4] = tested on: SK-MEL-5
[5] = tested on: OVCAR-4
[6] = tested on: HCT-116
[7] = tested on: K562
[8] = tested on: CCRF-CEM
[9] = tested on: SN12C
[10] = tested on: SF-268
[11] = tested on: SK-MEL-2
[12] = tested on: RXF 393
[13] = tested on: MOLT-4
[14] = tested on: SNB-19
[15] = tested on: SF-539
[16] = tested on: NCI/ADR-RES
[17] = tested on: CAKI-1
[18] = tested on: HT-29
[19] = tested on: UACC-62
[20] = tested on: SR
[21] = tested on: MDA-N
[22] = tested on: COLO 205
[23] = tested on: SK-MEL-28
[24] = tested on: EKVX
[25] = tested on: MDA-MB-231
[26] = tested on: BT-549
[27] = tested on: MDA-MB-435
[28] = tested on: KM12
[29] = tested on: TK-10
[30] = tested on: A498
[31] = tested on: U-251
[32] = tested on: NCI-H226
[33] = tested on: MCF7
[34] = tested on: HL-60
[35] = tested on: HOP-62
[36] = tested on: RPMI-8226
[37] = tested on: PC-3
[38] = tested on: T47D
[39] = tested on: IGROV-1
[40] = tested on: Malme-3M
[41] = tested on: OVCAR-3
[42] = tested on: SW-620
[43] = tested on: OVCAR-8
[44] = tested on: HCC 2998
[45] = tested on: SNB-75
[46] = tested on: SF-295
[47] = tested on: M14
[48] = tested on: LOX IMVI
[49] = tested on: NCI-H460
[50] = tested on: UO-31
[51] = tested on: ACHN
[52] = tested on: OVCAR-5
[53] = tested on: DU-145
[54] = tested on: HCT-15
[55] = tested on: SK-OV-3
[56] = tested on: NCI-H23
[57] = tested on: NCI-H522
[58] = tested on: HOP-92

For `C=C(C)C1(Sc2ccc(OC)cc2)CC1`, the GI50 [1] was 29.6 µM (inactive), the GI50 [2] was 30.8 µM (inactive) and the GI50 [3] was 21.2 µM (inactive). The GI50 [4] was 14.6 µM (inactive), the GI50 [5] was 34.9 µM (inactive) and the GI50 [6] was 27.2 µM (inactive). For the same molecule, the GI50 [7] was 14.9 µM (inactive), the GI50 [8] was 17.5 µM (inactive) and the GI50 [9] was 17.5 µM (inactive). The GI50 [10] was 15.8 µM (inactive), the GI50 [11] was 21.3 µM (inactive) and the GI50 [12] was 17.6 µM (inactive). The GI50 [13] was 13.8 µM (inactive), the GI50 [14] was 45.4 µM (inactive) and the GI50 [15] was 23.2 µM (inactive). For the same molecule, the GI50 [16] was 37.4 µM (inactive), the GI50 [17] was 30.5 µM (inactive) and the GI50 [18] was 22.3 µM (inactive). The GI50 [19] was 51.9 µM (inactive), the GI50 [20] was 14.6 µM (inactive) and the GI50 [21] was 15.6 µM (inactive). For the same molecule, the GI50 [22] was 17.1 µM (inactive), the GI50 [23] was 79.1 µM (inactive) and the GI50 [24] was 27.6 µM (inactive). The GI50 [25] was 43.4 µM (inactive), the GI50 [26] was 17.1 µM (inactive) and the GI50 [27] was 7.94 µM (inactive). For the same molecule, the GI50 [28] was 25 µM (inactive), the GI50 [29] was 48.1 µM (inactive) and the GI50 [30] was 29.3 µM (inactive). For the same molecule, the GI50 [31] was 29 µM (inactive), the GI50 [32] was 4.81 µM (inactive) and the GI50 [33] was 32.3 µM (inactive). The GI50 [34] was 17 µM (inactive), the GI50 [35] was 34.1 µM (inactive) and the GI50 [36] was 9.29 µM (inactive). For the same molecule, the GI50 [37] was 29.3 µM (inactive), the GI50 [38] was 31.9 µM (inactive) and the GI50 [39] was 30.5 µM (inactive). For the same molecule, the GI50 [40] was 17.8 µM (inactive), the GI50 [41] was 14.5 µM (inactive) and the GI50 [42] was 17.4 µM (inactive). The GI50 [43] was 33 µM (inactive), the GI50 [44] was 14.5 µM (inactive) and the GI50 [45] was 21.9 µM (inactive). For the same molecule, the GI50 [46] was 26.9 µM (inactive), the GI50 [47] was 35.1 µM (inactive) and the GI50 [48] was 17.3 µM (inactive). The GI50 [49] was 31 µM (inactive), the GI50 [50] was 12.2 µM (inactive) and the GI50 [51] was 33.6 µM (inactive). For the same molecule, the GI50 [52] was 34.2 µM (inactive), the GI50 [53] was 57.9 µM (inactive) and the GI50 [54] was 24.4 µM. For the same molecule, the GI50 [55] was 30.5 µM (inactive) and the GI50 [56] was 31.2 µM (inactive).

With `COC(=O)c1c([N+](=O)[O-])ncn1[C@H]1OC[C@@H](OC(C)=O)[C@@H](OC(C)=O)[C@@H]1OC(C)=O` the GI50 [1] was > 100 µM (inactive), the GI50 [2] was > 100 µM (inactive) and the GI50 [3] was > 100 µM (inactive). The GI50 [5] was > 100 µM (inactive), the GI50 [6] was > 100 µM (inactive) and the GI50 [7] was > 100 µM (inactive). For the same molecule, the GI50 [8] was > 100 µM (inactive), the GI50 [57] was > 100 µM (inactive) and the GI50 [9] was > 100 µM (inactive). The GI50 [10] was > 100 µM (inactive), the GI50 [12] was > 100 µM (inactive) and the GI50 [13] was > 100 µM (inactive). The GI50 [14] was > 100 µM (inactive), the GI50 [15] was > 100 µM (inactive) and the GI50 [16] was > 100 µM (inactive). The GI50 [17] was > 100 µM (inactive), the GI50 [18] was > 100 µM (inactive) and the GI50 [19] was > 100 µM (inactive). For the same molecule, the GI50 [20] was > 100 µM (inactive), the GI50 [21] was > 100 µM (inactive) and the GI50 [22] was > 100 µM (inactive). The GI50 [23] was > 100 µM (inactive), the GI50 [24] was > 100 µM (inactive) and the GI50 [25] was > 100 µM (inactive). The GI50 [26] was > 100 µM (inactive), the GI50 [27] was > 100 µM (inactive) and the GI50 [28] was > 100 µM (inactive). For the same molecule, the GI50 [29] was > 100 µM (inactive), the GI50 [30] was > 100 µM (inactive) and the GI50 [31] was > 100 µM (inactive). For the same molecule, the GI50 [32] was > 100 µM (inactive), the GI50 [33] was > 100 µM (inactive) and the GI50 [34] was > 100 µM (inactive). For the same molecule, the GI50 [35] was > 100 µM (inactive), the GI50 [37] was > 100 µM (inactive) and the GI50 [38] was > 100 µM (inactive). For the same molecule, the GI50 [39] was > 100 µM (inactive), the GI50 [40] was > 100 µM (inactive) and the GI50 [41] was > 100 µM (inactive). The GI50 [42] was > 100 µM (inactive), the GI50 [43] was > 100 µM (inactive) and the GI50 [44] was > 100 µM (inactive). The GI50 [45] was > 100 µM (inactive), the GI50 [46] was > 100 µM (inactive) and the GI50 [47] was > 100 µM (inactive). The GI50 [48] was > 100 µM (inactive), the GI50 [58] was > 100 µM (inactive) and the GI50 [49] was > 100 µM (inactive). For the same molecule, the GI50 [50] was > 100 µM (inactive), the GI50 [51] was > 100 µM (inactive) and the GI50 [52] was > 100 µM (inactive). For the same molecule, the GI50 [53] was > 100 µM (inactive), the GI50 [54] was greater than 100 µM and the GI50 [55] was > 100 µM (inactive). The GI50 [56] was > 100 µM (inactive).
